This passage reports Ki results from patent US8853196B2, “Aminochromane, aminothiochromane and amino-1,2,3,4-tetrahydroquinoline derivatives, pharmaceutical compositions containing them, and their use in therapy” (AbbVie Deutschland GmbH & Co. KG, priority 2011, dated 2014).

Structures can show the parent of a compound that is named as a salt. Bounds are passed on as bounds.

The experiment has as its target T1, human GlyT1c transporter (Homo sapiens, UniProt P48067).
T1 construct: expressed in transfected cells; host or cells: CHO cells (recombinant; membranes)
T1 sequence (P48067 1-706): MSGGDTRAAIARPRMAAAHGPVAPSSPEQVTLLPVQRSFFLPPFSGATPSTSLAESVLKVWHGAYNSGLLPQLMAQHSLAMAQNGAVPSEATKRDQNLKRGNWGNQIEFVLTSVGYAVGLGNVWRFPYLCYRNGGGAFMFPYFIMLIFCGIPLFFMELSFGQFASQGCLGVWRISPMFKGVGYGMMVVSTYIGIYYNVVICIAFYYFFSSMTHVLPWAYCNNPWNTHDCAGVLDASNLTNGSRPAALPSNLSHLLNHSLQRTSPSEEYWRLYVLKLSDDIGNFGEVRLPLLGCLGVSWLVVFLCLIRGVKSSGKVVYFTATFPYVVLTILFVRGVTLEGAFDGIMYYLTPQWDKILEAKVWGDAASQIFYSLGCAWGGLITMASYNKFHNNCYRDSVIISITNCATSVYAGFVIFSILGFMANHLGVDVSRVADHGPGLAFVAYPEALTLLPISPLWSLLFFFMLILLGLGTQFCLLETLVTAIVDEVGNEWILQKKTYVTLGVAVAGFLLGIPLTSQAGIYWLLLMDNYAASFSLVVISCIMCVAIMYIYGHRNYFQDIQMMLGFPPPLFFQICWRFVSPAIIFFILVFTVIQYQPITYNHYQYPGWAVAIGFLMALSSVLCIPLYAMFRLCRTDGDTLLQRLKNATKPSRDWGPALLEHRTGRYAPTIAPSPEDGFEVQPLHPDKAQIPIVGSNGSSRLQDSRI
The experiment in a line: Radioligand binding assay using recombinant CHO cell membranes expressing human GlyT1. The note with it: values given as upper bounds, read-out: radioligand binding Kiapp. On the procedure: 2. Radioligand Binding Assays Using Recombinant CHO Cell Membranes Expressing Human GlyT1:
Radioligand binding to human GlyT1c transporter-expressing membranes was determined as described in Mezler et al., Molecular Pharmacology 74:1705-1715, 2008.
Take `CCCS(=O)(=O)NCc1ccc2c(c1)[C@@H](Cc1ccccc1)[C@H](N)CO2` (relative stereo) [Example 72, trans-Propane-1-sulfonic acid (-3-amino-4-benzyl-chroman-6-ylmethyl)-amide]: the Ki is ≤ 100 nM. In the case of `CN[C@@H]1COc2ccc(OCCNS(=O)(=O)c3cnn(C)c3)cc2[C@H]1Cc1ccccc1` (relative stereo) [Example 1b, trans-N-(2-{[-4-benzyl-3-(methylamino)-3,4-dihydro-2H-chromen-6-yl]oxy}ethyl)-1-methyl-1H-pyrazole-4-sulfonamide hydrochloride], the Ki was ≤ 10 nM. For `Cn1cnc(S(=O)(=O)NCCOc2ccc3c(c2)[C@H](Cc2ccccc2)[C@H](N2CCC2)CO3)c1` (relative stereo) [Example 10, cis-1-Methyl-1H-imidazole-4-sulfonic acid [2-(3-azetidin-1-yl-4-benzyl-chroman-6-yloxy)-ethyl]-amide] the value was ≤ 10 nM. The same measure for `CS(=O)(=O)NCc1ccc2c(c1)[C@H](Cc1ccccc1)[C@H](N1CCCC1)CO2` (relative stereo) [Example 64, cis-N-(-4-Benzyl-3-pyrrolidin-1-yl-chroman-6-ylmethyl)-methanesulfonamide]: ≤ 1000 nM. For `CCS(=O)(=O)NCCOc1ccc2c(c1)[C@H](Cc1ccccc1)[C@H](N1CCC1)CO2` (relative stereo) [Example 18, cis-Ethanesulfonic acid [2-(3-azetidin-1-yl-4-benzyl-chroman-6-yloxy)-ethyl]-amide] the value was ≤ 100 nM.

As for `CCS(=O)(=O)NCc1cc2c(cc1F)OC[C@@H](NC)[C@H]2Cc1ccccc1` (relative stereo) [Example 27, cis-Ethanesulfonic acid (-4-benzyl-7-fluoro-3-methylamino-chroman-6-ylmethyl)-amide], the Ki is ≤ 10 nM. Take `CCS(=O)(=O)NCc1ccc2c(c1)[C@@H](Cc1ccccc1)[C@H](N)CO2` (relative stereo) [Example 24, trans-Ethanesulfonic acid (3-amino-4-benzyl-chroman-6-ylmethyl)-amide]: the Ki was ≤ 100 nM. For `CN[C@H]1[C@@H](Cc2ccccc2)c2cc(OCCNS(=O)(=O)CC3CC3)ccc2OC1(C)C` (relative stereo) [Example 76, cis-N-[2-(-4-Benzyl-2,2-dimethyl-3-methylamino-chroman-6-yloxy)-ethyl]-C-cyclopropyl-methanesulfonamide], the Ki is ≤ 1000 nM.

For the molecule `CN[C@@H]1COc2ccc(OCCNS(=O)(=O)CC3CC3)cc2[C@H]1Cc1ccccc1` (relative stereo) [Example 4b, trans-N-(2-{[-4-benzyl-3-(methylamino)-3,4-dihydro-2H-chromen-6-yl]oxy}ethyl)-1-cyclopropylmethanesulfonamide], the Ki is ≤ 100 nM. For `CN[C@@H]1COc2ccc(CNS(=O)(=O)C3CCC3)cc2[C@H]1Cc1ccccc1` (relative stereo) [Example 26, trans-Cyclobutanesulfonic acid (4-benzyl-3-methylamino-chroman-6-ylmethyl)-amide], the Ki was ≤ 1000 nM.

As for `CCS(=O)(=O)NCc1cc2c(cc1F)OC[C@@H](NC)[C@@H]2Cc1ccccc1` (relative stereo) [Example 28, trans-Ethanesulfonic acid (-4-benzyl-7-fluoro-3-methylamino-chroman-6-ylmethyl)-amide], the Ki is ≤ 100 nM.

On to `CC(C)S(=O)(=O)NCc1ccc2c(c1)C(Cc1ccccc1)C(N)CO2` (stereo not drawn) [Example 48, Propane-2-sulfonic acid (3-amino-4-benzyl-chroman-6-ylmethyl)-amide 2,2,2-trifluoroacetate], for which the Ki was ≤ 1000 nM.

Turning to `CCS(=O)(=O)NCCOc1cc2c(cc1F)OC[C@@H](NC)[C@H]2Cc1ccccc1` (relative stereo) [Example 29, cis-Ethanesulfonic acid [2-(-4-benzyl-7-fluoro-3-methylamino-chroman-6-yloxy)-ethyl]-amide], the Ki is ≤ 100 nM. For `N[C@@H]1COc2ccc(CNS(=O)(=O)C3CCC3)cc2[C@@H]1Cc1ccccc1` (relative stereo) [Example 69, cis-Cyclobutanesulfonic acid (-3-amino-4-benzyl-chroman-6-ylmethyl)-amide] the value was ≤ 100 nM. The same measure for `CCS(=O)(=O)NCc1ccc2c(c1)[C@H](Cc1ccccc1)[C@H](N1CCCC1)CO2` (relative stereo) [Example 63, cis-Ethanesulfonic acid (-4-benzyl-3-pyrrolidin-1-yl-chroman-6-ylmethyl)-amide]: ≤ 100 nM; for `CCC(C)S(=O)(=O)NCc1ccc2c(c1)C(Cc1ccccc1)C(N)CO2` (stereo not drawn) [Example 47, Butane-2-sulfonic acid (3-amino-4-benzyl-chroman-6-ylmethyl)-amide 2,2,2-trifluoroacetate]: ≤ 100 nM.

In the case of `CCCS(=O)(=O)NCCOc1ccc2c(c1)[C@H](Cc1ccccc1)[C@H](NC)C(C)(C)O2` (relative stereo) [Example 74, cis-Propane-1-sulfonic acid [2-(-4-benzyl-2,2-dimethyl-3-methylamino-chroman-6-yloxy)-ethyl]-amide], the Ki is ≤ 1000 nM.

Consider `Cc1nn(C)cc1S(=O)(=O)NCc1ccc2c(c1)C(Cc1ccccc1)C(N)CO2` (stereo not drawn) [Example 45, 1,3-Dimethyl-1H-pyrazole-4-sulfonic acid (3-amino-4-benzyl-chroman-6-ylmethyl)-amide 2,2,2-trifluoroacetate], for which the Ki is ≤ 10000 nM. As to `CCCN[C@@H]1COc2ccc(CNS(=O)(=O)c3cn(C)cn3)cc2[C@@H]1Cc1ccccc1` (relative stereo) [Example 35, cis-N-((-4-benzyl-3-(propylamino)chroman-6-yl)methyl)-1-methyl-1H-imidazole-4-sulfonamide 2,2,2-trifluoroacetate], the Ki is ≤ 10 nM.

`CN[C@@H]1COc2ccc(OCCNS(=O)(=O)c3cnn(C)c3)cc2[C@@H]1Cc1ccccc1` (relative stereo) [Example 1a, cis-N-(2-{[4-Benzyl-3-(methylamino)-3,4-dihydro-2H-chromen-6-yl]oxy}ethyl)-1-methyl-1H-pyrazole-4-sulfonamide hydrochloride]: the Ki is ≤ 10 nM.

As for `CCS(=O)(=O)NCc1ccc2c(c1)[C@@H](Cc1ccccc1)[C@H](NC)CO2` (relative stereo) [Example 9b, trans-N-{[4-benzyl-3-(methylamino)-3,4-dihydro-2H-chromen-6-yl]methyl}ethanesulfonamide], the Ki was ≤ 1000 nM. As for `CN[C@H]1[C@H](Cc2ccccc2)c2cc(OCCNS(=O)(=O)CC3CC3)ccc2OC1(C)C` (relative stereo) [Example 77, trans-N-[2-(-4-Benzyl-2,2-dimethyl-3-methylamino-chroman-6-yloxy)-ethyl]-C-cyclopropyl-methanesulfonamide], the Ki is ≤ 1000 nM. For `Cn1cnc(S(=O)(=O)NCc2ccc3c(c2)[C@H](Cc2ccccc2)[C@H](NCC(C)(C)C)CO3)c1` (relative stereo) [Example 36, cis-N-((-4-benzyl-3-(neopentylamino)chroman-6-yl)methyl)-1-methyl-1H-imidazole-4-sulfonamide 2,2,2-trifluoroacetate] the value was ≤ 100 nM; for `N[C@@H]1COc2ccc(CNS(=O)(=O)CC3CC3)cc2[C@H]1Cc1ccccc1` (relative stereo) [Example 68, trans-N-(-3-Amino-4-benzyl-chroman-6-ylmethyl)-C-cyclopropyl-methanesulfonamide], ≤ 100 nM.
